From paper PMC6571673, “Cytostatic and Cytotoxic Natural Products against Cancer Cell Models” (Molecules, 2019) come the findings set out here.

Structures are written as SMILES.

For one data set, the system named is UoC-B1. Nature of the data set: CTG viability assay (CellTiter-Glo, 72 h). It is filed as cell-based. Particulars: Homo sapiens, mean ± SEM of triplicates. The method, then: (§1) All human cell lines were incubated at 37 °C in a 5% CO2 atmosphere and maintained under sterile conditions. Cells were tested for Mycoplasma (Lonza, Alpharetta, GA, USA) using the manufacturer’s conditions prior to experiments. Cell lines were purchased from American Type Culture Collection (ATCC, Manassas, VA, USA) or Leibniz-Institute Deutsche Sammlung von Mikroorganismen und Zellkulturen GmbH (DSMZ, Braunschweig, Germany) and cultured without antibiotics unless stated. Leukemia cells were cultured in RPMI and supplemented with 10% fetal bovine serum (FBS, Hyclone, Logan, UT, USA). SUP-B15, and KOPN-8 lines were cultured in RPMI supplemented with 10% FBS (Hyclone), 1% GlutaMAX™, 1% Pen/Step, and 0.1% β-mercaptoethanol. BJ cells were cultured in EMEM media supplemented with 10% FBS (Hyclone). Breast cancer cells (MDA-MB-231 & SUM149) were cultured in DMEM and Ham’s F12 respectively, supplemented with 10% FBS, 1% GlutaMAX™, 1% Pen/Step, and 2 µM cortisol/1 µg/mL insulin for SUM149. Both cells were grown to 80% confluence densities as recommended by ATCC. PBMCs were supplemented with concanavalin-A (5 μg/mL) and IL-2 (50 U/ml). To test general cytotoxicity, the following cell numbers were used for 384 well plates: KOPN-8 (ACC 552, infant human B cell precursor acute lymphoblastic leukemia with MLL-MLLt1/ENL fusion, 1000 cells/well), SUP-B15 (ACC389, human B cell precursor acute lymphoblastic leukemia of pediatric second relapse carrying the ALL-variant (m-bcr) of BCR-ABL1 fusion gene (e1-a2), 1600 cells/well), NALM-06 (DSMZ ACC128, non-T/non-B ALL at relapse with P15INK4B and P16INK4A deletions, 1200 cells/well), UoC-B1 (pediatric BCP-ALL at second relapse with TCF3/E2A-HFL fusion, 1000 cells/well), BJ (CRL-2522, normal human foreskin fibroblast cells, 400 cells/well) and PBMCs (periphery blood monocyte cells from healthy donors, IBC#BDC046, 10,000 cells/well).
(§2) Cytotoxicity evaluation was performed using the CellTiter-Glo Luminescent Cell Viability Assay kit (G7570, Promega, Madison, WI, USA), according to the manufacturer’s instructions. Briefly, the cell concentrations used were experimentally determined to ensure logarithmic growth during the 72-h duration of the experiment, and avoid adverse effects on cell growth by DMSO exposure. 1 × 10^3–4.8 × 10^3 or 4 × 10^2–1.2 × 10^3 cells/well were seeded in 96 or 384-well white flat-bottomed plates (3610 or 8804BC, Corning, Corning, NY, USA) in 100 µL or 30 µL/well, respectively. The plates were incubated at 37 °C in 5% CO2 for 24 h before drugging. Test compounds (10 mM in DMSO) in nine 3-fold serial dilutions were dispensed via pintool (Biomek liquid handler, Beckman, Indianapolis, USA) to assay plates. The final concentration of DMSO was 0.3% (v/v) in each well. The positive controls included staurosporine (10 μM), and gambogic acid (10 μM). The plates were incubated for 72 h at 37 °C in 5% CO2, then quenched with CellTiter-Glo® (Promega, Madison, WI, USA, 50 µL/96 or 30 µL/384), centrifuged at 1000 rpm for 1 min and incubated at RT for 20 min. Luminescence was recorded with a plate reader (Envision, Perkin Elmer, Waltham, MA, USA). The mean luminescence of each experimental treatment group was normalized as a percentage of the mean intensity of untreated controls. EC50 values were calculated by Pipeline Pilot software (Accelrys, Enterprise Platform, San Diego, CA, USA).

The test system of the next data set is NALM-06. Nature of the data set: CTG viability assay (CellTiter-Glo, 72 h). It is filed as cell-based. The following applies: Homo sapiens, mean ± SEM of triplicates. Here is the method:
as §1, §2

The next data set relates to PBMC. As to the kind of experiment: CTG viability assay (CellTiter-Glo, 72 h). It is filed as cell-based. Particulars: Homo sapiens, non-cancerous cells. The method, then:
as §1, §2

In data set [1] the test system is KOPN-8. As to the kind of experiment: CTG viability assay (CellTiter-Glo, 72 h). It is filed as cell-based. Particulars: Homo sapiens, mean ± SEM of triplicates. Here is the method: as §1, §2
The test system of data set [2] is KOPN-8. As to the kind of experiment: Annexin V/PI apoptosis flow cytometry assay. It is filed as cell-based, human. Particulars: KOPN-8, 24 h; 8 5 µM, 9 10 µM, 10 5 µM, 12 10 µM, 13 10 µM. The method, then: (§3) The samples were probed with AnnexinV-FITC (Roche/Boehringer Mannheim, Indianapolis, IN, USA) according to the manufacturer’s instructions. KOPN-8 or SUB-P15 cells were plated (1.00 × 10^6 cells/plate) and incubated for 12 h and incubated at 37 °C. Then, cells were treated with compounds or controls for 24 h. Cells were stained with AnnexinV-FITC, PI and the staining profiles were determined with FACScan and Cell-Quest software. For cellular DNA content, the same cell treatment as above was performed. Then, cells were fixed in cold 75% ethanol, treated with RNase and then stained with PI solution (50 µg/mL). Cell cycle distribution was analyzed with the FACSCalibur analyzer (BD Biosciences, Franklin Lakes, NJ, USA) and Cell-Quest software. The percentage of DNA content at different phases of the cell cycle was analyzed with ModFit-software (version 5.0, Verity Software House, Topsham, ME, USA).

Data set [3] relates to SUP-B15. As to the kind of experiment: Annexin V/PI apoptosis flow cytometry assay. Particulars: SUP-B15, 24 h; 8 5 µM, 9 10 µM, 10 5 µM, 12 10 µM, 13 10 µM. It is filed as cell-based, human. The method, then:
as §3

The next data set deals with BJ. Nature of the data set: CTG viability assay (CellTiter-Glo, 72 h). Particulars: for EC50: Homo sapiens, BJ, CellTiter-Glo, 72 h, non-cancerous cells. It is filed as cell-based, human. Here is the method: as §1, §2
In data set [4] the test system is SUP-B15. Nature of the data set: CTG viability assay (CellTiter-Glo, 72 h). It is filed as cell-based, human. Here is the method: as §1, §2

As to `COC1=C[C@]23CCCN2CCc2cc4c(cc2[C@@H]3[C@@H]1O)OCO4` [Compound 9, cephalotaxine], the EC50 in the data set on UoC-B1 is 17.6 ± 5.8 µM; in the data set on NALM-06 it was 9.5 ± 2.7 µM; in the data set on PBMC it was more than 83 µM; with KOPN-8 [1], 23.1 ± 5.2 µM; with BJ it was more than 43.3 µM; in the data set on SUP-B15 [4] (Homo sapiens, SUP-B15, mean ± SEM of triplicates), 10.4 ± 0.75 µM. In addition, the “live cells (Annexin-, PI-)” value in the data set with KOPN-8 [2] and in the data set with SUP-B15 [3] was “small decrease in live cells” throughout.
In the case of `COC(=O)C[C@](O)(CCCC(C)(C)O)C(=O)O[C@@H]1C(OC)=C[C@]23CCCN2CCc2cc4c(cc2[C@H]13)OCO4` [Compound 10, homoharringtonine, reference compound], the EC50 is 0.0129 ± 0.002 µM in the data set with UoC-B1; 0.0322 ± 0.01 µM with NALM-06; 6.35 µM in the data set with PBMC; 0.0799 ± 0.01 µM in the data set on KOPN-8 [1]; more than 43.3 µM with BJ; 0.0452 µM in the data set on SUP-B15 [4] (Homo sapiens, SUP-B15, 72 h, mean ± SEM of triplicates). This molecule displayed an EC50 in the data set on SUP-B15 [4] (mean ± SEM of triplicates) of 0.045 ± 0.005 µM. Also, the “activity against BJ” value in the data set with BJ (at the highest tested concentration (43.3 µM)) was “no observable activity”.
